Results taken from patent US6596309B2, “Stable pharmaceutical dosage form for paroxetin anhydrate” (BASF Aktiengesellschaft, priority 1999, dated 2003).

Assay: Check for conversion of the anhydrate to the hemihydrate in soft gelatin capsules (infrared spectroscopy or DSC)
Format: physicochemical
Details: paroxetin anhydrate incorporated into soft gelatin capsules; lipophilic carrier silicone oil
Description: The incorporation of paroxetin anhydrate into soft gelatin capsules was surprising because soft gelatin contains very large amounts of water during the encapsulation process. […] However, the use of glycerol in the preparation of the capsule coat should be avoided.
A test for absence of the hemihydrate can be performed very simply by infrared spectroscopy or differential scanning calorimetry (DSC), as described by P.C. Baxter et al. in the International Journal of Pharmaceutics, 42 (1988), pages 135 to 143.

Structure (SMILES): Fc1ccc([C@@H]2CCNC[C@H]2COc2ccc3c(c2)OCO3)cc1 (relative stereo) [paroxetin anhydrate, (—)-trans-4-(4′-fluorophenyl)-3-(3′,4′-methylenedioxyphenoxymethyl)-piperidine]
- conversion to the hemihydrate: did not occur
